Reference: paper PMC4019636, “Rational Design of Berberine-Based FtsZ Inhibitors with Broad-Spectrum Antibacterial Activity” (PLoS ONE, 2014)
Where two headings read alike, the source gives them in different places.

Assays:
E. faecium ATCC 49624 = experiment: Antimicrobial susceptibility assay (broth microdilution MIC); type: cell-based; details: Enterococcus faecium, ATCC49624; E. faecium ATCC 49624; brain heart infusion broth, 18 h at 37°C; growth inhibited by ≥90%; read-out: MIC
Source text: (§1) The bacterial strains S. aureus ATCC 29213, S. aureus ATCC 29247, S. aureus ATCC BAA-41, E. faecium ATCC 49624, E. faecium ATCC 700221, E. faecalis ATCC 29212, S. epidermidis ATCC 12228, E. coli ATCC 25922, and K. pneumoniae ATCC BAA-1144 used in the antimicrobial susceptibility assays were purchased from American Type Culture Collection (ATCC, USA). B. subtilis strain 168 was already available in our in-house collection. E. coli JM109 WM647 was kindly provided by Dr. W. Margolin (University of Texas-Houston Medical School). FM 4–64 was purchased from Invitrogen (Eugene, Oregon). All other chemicals and reagents were purchased from Sigma-Aldrich. Stock solutions were prepared in DMSO. The final percentage of DMSO in the assays was 1% (v/v) for all experiments.
(§2) Antimicrobial susceptibility tests were conducted in 96-well microplates using the broth microdilution procedure described in the Clinical and Laboratory Standards Institute (CLSI) guidelines. […] After incubation for 18 h at 37°C, the absorbance at 600 nm (A600) was recorded using a microplate reader (Bio-Rad laboratory Ltd., UK) and the percentage of bacterial cell inhibition with respect to vehicles (1% DMSO) was calculated. The MIC was defined as the lowest compound concentration at which the growth of bacteria was inhibited by ≥90%. Three independent assays were performed for each test.

E. faecium ATCC 700221 = experiment: as above; type: cell-based; details: Enterococcus faecium, ATCC700221; E. faecium ATCC 700221 (vancomycin-resistant); brain heart infusion broth, 18 h at 37°C; growth inhibited by ≥90%; read-out: MIC
Source text: as §1, §2

S. aureus FtsZ = molecular target: T1, S. aureus FtsZ (Staphylococcus aureus, UniProt P0A031); experiment: GTPase activity assay; type: biochemical; details: for GTPase activity of S. aureus FtsZ: 0.44 in its absence
T1 construct: made in house; host or cells: E. coli BL21(DE3)
T1 sequence (P0A031 1-390): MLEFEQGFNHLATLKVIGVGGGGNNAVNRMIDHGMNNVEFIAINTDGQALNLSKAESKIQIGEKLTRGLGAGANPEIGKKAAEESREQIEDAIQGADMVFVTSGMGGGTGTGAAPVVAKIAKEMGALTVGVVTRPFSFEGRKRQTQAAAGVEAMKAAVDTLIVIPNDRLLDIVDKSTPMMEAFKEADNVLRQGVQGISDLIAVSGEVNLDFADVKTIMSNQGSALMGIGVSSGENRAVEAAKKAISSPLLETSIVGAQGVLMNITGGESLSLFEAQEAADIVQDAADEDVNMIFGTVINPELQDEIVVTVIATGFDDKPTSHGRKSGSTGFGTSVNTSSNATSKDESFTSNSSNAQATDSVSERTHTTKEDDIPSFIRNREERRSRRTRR
Method: E. coli BL21(DE3) cells were transformed with the pRSET-A-S vector carrying S. aureus FtsZ with a 6-histidine tag attached at its N-terminus under the control of a T7 promoter. […] When the OD600 reached 0.8, protein expression was induced with 0.4 mM isopropyl-β-D-thiogalactopyranoside (IPTG) for 4 h. Cells were harvested by centrifugation at 9000 rpm for 20 min at 4°C. The cell pellet was resuspended in 20 mL of solubilization buffer (50 mM Tris-HCl, 150 mM NaCl, 1 mM PMSF and 1 mM EDTA, pH 7.4) and then lysed with 1 mg/mL of lysozyme. The mixture was incubated for 1 h on ice. The cells were disrupted by sonication and the crude lysate obtained was centrifuged at 13,000 rpm for 1 h at 4°C. The supernatant containing 6-histidine tagged S. aureus FtsZ was collected and loaded onto a nickel charged HiTrap chelating column pre-equilibrated with starting buffer (20 mM sodium phosphate buffer, 0.5 M NaCl, pH 7.4). The column was then washed with 8 column volumes of the starting buffer to remove the unbound proteins, and the histidine-tagged enzyme was eluted by a linear gradient of 0−0.2 M imidazole. Fractions containing S. aureus FtsZ were pooled, buffer-exchanged with 20 mM NH4HCO3 (pH 8.0) at 4°C, lyophilized, and stored at −20°C. A stock solution of S. aureus FtsZ for the subsequent bioassay was prepared from the lyophilized powder.
The GTPase activity of recombinant S. aureus FtsZ was measured in 96-well microplates using a CytoPhos phosphate assay Biochem Kit (Cytoskeleton, USA) according to an optimized protocol and the manufacturer’s instructions. S. aureus FtsZ (3.5 µM) was preincubated with vehicle (1% DMSO) or different concentrations of each test compound in 50 mM 4-morpholinepropanesulfonic acid buffer (MOPS, pH 6.5) for 10 min at 25°C. Then 5 mM of MgCl2 and 200 mM of KCl were added. Reactions were started with the addition of 500 µM GTP and incubated at 37°C. After 30 min, the reactions were quenched by adding 100 µL of Cytophos reagent for 10 min. Inorganic phosphate was quantified by measuring the absorbance at 650 nm with a microplate reader (Bio-Rad laboratory Ltd., UK). The relative IC50 values were determined by nonlinear regression using a sigmoidal concentration-response curve in the Origin software v6. For the rate of GTPase activity of S. aureus FtsZ, different concentrations of fresh prepared FtsZ (3, 6, 9, 12, 15 µM) was preincubated with vehicle (1% DMSO) or 25 µM, 50 µM compound 2, following the same condition. The data were plotted via Origin software v6. Three independent assays were performed for all the tests.

[1] = tested on: antibiotic-susceptible and antibiotic-resistant S. aureus strains; experiment: Antimicrobial susceptibility assay, summary over S. aureus strains; type: cell-based; details: Staphylococcus aureus
Source text: as §1
(§3) Antimicrobial susceptibility tests were conducted in 96-well microplates using the broth microdilution procedure described in the Clinical and Laboratory Standards Institute (CLSI) guidelines. Cation-adjusted Mueller Hinton broth for S. aureus strain ATCC 29213, methicillin-resistant S. aureus strain ATCC BAA-41 and ampicillin-resistant S. aureus strain ATCC 29247, or brain heart infusion broth for antibiotic-susceptible E. faecium strain ATCC 49624 and vancomycin-resistant E. faecium strain ATCC 700221, or Mueller Hinton broth for antibiotic-susceptible strains B. subtilis strain 168, E. faecalis strain ATCC 29212 and E. coli strain ATCC 25922 were used in the assays. After incubation for 18 h at 37°C, the absorbance at 600 nm (A600) was recorded using a microplate reader (Bio-Rad laboratory Ltd., UK) and the percentage of bacterial cell inhibition with respect to vehicles (1% DMSO) was calculated. The MIC was defined as the lowest compound concentration at which the growth of bacteria was inhibited by ≥90%. Three independent assays were performed for each test.

[2] = tested on: vancomycin-susceptible and vancomycin-resistant E. faecium; experiment: Antimicrobial susceptibility assay, summary over E. faecium strains; type: cell-based; details: Enterococcus faecium
Source text: as §1, §3

[3] = FtsZ 3.5 µM, 500 µM GTP, 30 min at 37°C, MOPS pH 6.5, read-out: IC50±SEM, S. aureus FtsZ GTPase activity (relative IC50)

## COc1ccc(OCCCOc2c(OC)ccc3cc4[n+](cc23)CCc2cc3c(cc2-4)OCO3)cc1 [Compound 3]
E. faecium ATCC 49624
  MIC: 16 µg/mL
E. faecium ATCC 700221
  MIC: 16 µg/mL
S. aureus FtsZ; [3]
  IC50: 47.3 ± 4.6 µM
[1]
  MIC: 2 to 8 µg/mL
[2]
  MIC: 4 to 16 µg/mL

## COc1ccc2cc3[n+](cc2c1OC)CCc1cc2c(cc1-3)OCO2 [Berberine, Berberine chloride]
E. faecium ATCC 49624
  MIC: > 196 µg/mL
E. faecium ATCC 700221
  MIC: > 196 µg/mL
S. aureus FtsZ
  IC50: 272 ± 46.6 µM
[1]
  MIC: 128 to 196 µg/mL
[2]
  MIC: > 196 µg/mL

## COc1ccc2cc3[n+](cc2c1OCCCOc1ccc(Cl)cc1)CCc1cc2c(cc1-3)OCO2 [Compound 2]
E. faecium ATCC 49624
  MIC: 4 µg/mL
E. faecium ATCC 700221
  MIC: 4 µg/mL
S. aureus FtsZ; [3]
  IC50: 37.8 ± 3.8 µM
S. aureus FtsZ; in the presence of 25 µM compound
  GTPase activity of S. aureus FtsZ: 0.24 GTP/FtsZ/min
S. aureus FtsZ; in the presence of 50 µM compound
  GTPase activity of S. aureus FtsZ: 0.1 GTP/FtsZ/min
[1]
  MIC: 2 to 8 µg/mL
[2]
  MIC: 4 to 16 µg/mL

## COc1ccc2cc3[n+](cc2c1OCCCOc1ccc([N+](=O)[O-])cc1)CCc1cc2c(cc1-3)OCO2 [Compound 5]
E. faecium ATCC 49624
  MIC: 8 µg/mL
E. faecium ATCC 700221
  MIC: 8 µg/mL
S. aureus FtsZ; [3]
  IC50: 43.4 ± 5.2 µM
[1]
  MIC: 2 to 8 µg/mL
[2]
  MIC: 4 to 16 µg/mL

## COc1ccc2cc3[n+](cc2c1OCCCOc1ccccc1)CCc1cc2c(cc1-3)OCO2 [Compound 1]
E. faecium ATCC 49624
  MIC: 8 µg/mL
E. faecium ATCC 700221
  MIC: 8 µg/mL
S. aureus FtsZ; [3]
  IC50: 56.8 ± 10.4 µM
[1]
  MIC: 2 to 8 µg/mL
[2]
  MIC: 4 to 16 µg/mL

## COc1ccc2cc3[n+](cc2c1OCCCCOc1ccccc1)CCc1cc2c(cc1-3)OCO2 [Compound 6]
E. faecium ATCC 49624
  MIC: 8 µg/mL
E. faecium ATCC 700221
  MIC: 8 µg/mL
S. aureus FtsZ; [3]
  IC50: 63.5 ± 4.7 µM
[1]
  MIC: 2 to 8 µg/mL
[2]
  MIC: 4 to 16 µg/mL

## COc1ccc2cc3[n+](cc2c1OCCCOc1ccccc1C)CCc1cc2c(cc1-3)OCO2 [Compound 4]
E. faecium ATCC 49624
  MIC: 8 µg/mL
E. faecium ATCC 700221
  MIC: 8 µg/mL
S. aureus FtsZ; [3]
  IC50: 63.7 ± 4.8 µM
[1]
  MIC: 2 to 8 µg/mL
[2]
  MIC: 4 to 16 µg/mL
